Measurements: BindingDB's records for doi:10.1021/jm801643b (Vanderbilt University, 2009)

Target: Sterol 14-alpha demethylase (Trypanosoma cruzi (strain CL Brener), UniProt Q7Z1V1)
Test: Spectral Titration of TCCYP51
Settings: pH 7.4; 24 °C
Description: As a cysteine-coordinated hemoprotein, sterol 14-alpha-demethylase responds spectrally to any perturbations in the area surrounding the heme iron. These spectral responses can be used to estimate the apparent dissociation constants (Kd) of the enzyme/ligand complexes. […] The tested compounds were added in 1 ul aliquots to the test cuvette until the maximum in spectral response was reached. Equal volumes of DMSO were added to the reference cuvette. The apparent Kd values were determined from the equilibrium titration curves by plotting absorbance changes against the concentration of free ligand and fitting the data to a rectangular hyperbola using SigmaPlot Statistics.

Sequence of Sterol 14-alpha demethylase (Q7Z1V1 whole entry): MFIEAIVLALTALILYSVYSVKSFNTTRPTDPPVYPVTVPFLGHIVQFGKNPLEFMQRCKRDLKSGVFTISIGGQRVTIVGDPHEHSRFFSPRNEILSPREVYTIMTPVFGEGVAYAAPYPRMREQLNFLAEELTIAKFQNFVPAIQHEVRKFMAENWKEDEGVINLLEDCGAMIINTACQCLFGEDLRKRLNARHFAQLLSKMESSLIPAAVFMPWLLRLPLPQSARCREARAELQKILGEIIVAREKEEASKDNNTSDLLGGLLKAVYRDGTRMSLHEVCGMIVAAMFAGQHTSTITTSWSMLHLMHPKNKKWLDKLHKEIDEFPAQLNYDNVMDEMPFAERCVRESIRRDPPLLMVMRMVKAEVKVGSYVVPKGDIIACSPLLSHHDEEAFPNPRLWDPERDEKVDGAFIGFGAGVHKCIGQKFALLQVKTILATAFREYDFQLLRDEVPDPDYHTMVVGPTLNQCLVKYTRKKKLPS

**Q.** `COc1ccc2c(c1)c(CC(=O)Nc1cccnc1C)c(C)n2C(=O)c1ccc(Cl)cc1` [Indomethacin-amide derivative, 13] was tested. Which Kd did it give?
**A.** 7600 nM

**Q.** For `COc1ccc2c(c1)c(CC(=O)NCc1ccc(Cl)nc1)c(C)n2C(=O)c1ccc(Cl)cc1` [Indomethacin-amide derivative, 18], which Kd is on record?
**A.** 260 nM

**Q.** With `COc1ccc2c(c1)c(CC(=O)NCc1ccc(C(F)(F)F)nc1)c(C)n2C(=O)c1ccc(Cl)cc1` [Indomethacin-amide derivative, 19] as the compound, how does the Kd read?
**A.** 560 nM
